Kd data for 24 molecules are collected here from patent publication US20240116892A1, “HETEROCYCLIC AMIDE AND UREA COMPOUNDS AS JAK2 INHIBITORS” (Ajax Therapeutics, Inc., priority 2022, published 2024).

pKd: −log10 of the molar value.

JAK2 (JH1 domain-catalytic, Y1007F, Y1008F) kinase, sequence (O60674 849-1124 Y1007F/Y1008F): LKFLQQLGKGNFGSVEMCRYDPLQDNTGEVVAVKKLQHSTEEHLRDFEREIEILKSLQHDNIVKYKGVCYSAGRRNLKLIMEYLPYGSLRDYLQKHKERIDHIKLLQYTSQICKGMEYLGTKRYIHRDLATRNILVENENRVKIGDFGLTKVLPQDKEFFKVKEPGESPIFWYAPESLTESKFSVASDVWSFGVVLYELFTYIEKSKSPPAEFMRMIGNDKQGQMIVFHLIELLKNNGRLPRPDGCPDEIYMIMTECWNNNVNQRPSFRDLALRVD

The experiment addresses JAK2 (JH1 domain-catalytic, Y1007F, Y1008F) kinase (Homo sapiens (Human), UniProt O60674, Y1007F/Y1008F). Briefly: JAK2 JH1 Domain Binding Assay. Particulars: qPCR readout. Summed up: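 JH1 catalytic domain (Y1007F/Y1008F) expressed as NFkB DNA-binding-domain fusion in HEK293 cells, DNA-tagged. Competition with immobilized biotinylated ligand on streptavidin beads, 1 h at RT in PBS/Tween/BSA/DTT; bound kinase eluted with free ligand and quantified by qPCR.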
Background: In qPCR the cycle at which signal appears reflects the starting amount.
As usually defined, the pKd is the Kd on a negative log10 scale, so that one unit is a factor of ten. A higher pKd goes with a small Kd. Regarding `C[C@@H]1C[C@H](N(C)C(=O)Nc2cc(C(C)(C)C)n([C@H]3C[C@H](O)C3)n2)CCN1c1cnc2[nH]ncc2c1` [Example I-135-a, 3-(5-(tert-butyl)-1-((1r,3R)-3-hydroxycyclobutyl)-1H-pyrazol-3-yl)-1-methyl-1-((2R,4R)-2-methyl-1-(1H-pyrazolo[3,4-b]pyridin-5-yl)piperidin-4-yl)urea], the pKd is 7.30 to 8.00.
In the case of `C[C@H]1CN(c2cnc3[nH]ncc3c2)CC[C@H]1N(C)C(=O)Nc1cc(C(F)(F)F)cn(C)c1=O` [Example I-70-b, 1-methyl-1-((3S,4R)-3-methyl-1-(1H-pyrazolo[3,4-b]pyridin-5-yl)piperidin-4-yl)-3-(1-methyl-2-oxo-5-(trifluoromethyl)-1,2-dihydropyridin-3-yl)urea], the pKd was above 8.00.
Next, `COc1n[nH]c2ncc(N3CC[C@H](N(C)C(=O)Nc4cc(C(F)(F)F)cn(C)c4=O)C[C@@H]3C)cc12` [Example I-133-a, 1-((2S,4S)-1-(3-methoxy-1H-pyrazolo[3,4-b]pyridin-5-yl)-2-methylpiperidin-4-yl)-1-methyl-3-(1-methyl-2-oxo-5-(trifluoromethyl)-1,2-dihydropyridin-3-yl)urea]: above 8.00; `Cc1cc(C(F)(F)F)cc(NC(=O)N(C)[C@@H]2CCN(c3cnc4[nH]ncc4c3)C[C@H]2F)n1` [Example I-177, 1-((3R,4R)-3-fluoro-1-(1H-pyrazolo[3,4-b]pyridin-5-yl)piperidin-4-yl)-1-methyl-3-(6-methyl-4-(trifluoromethyl)pyridin-2-yl)urea]: above 8.00; `C[C@@H]1C[C@H](N(C)C(=O)Nc2cc(C(F)(F)F)cn(C)c2=O)CCN1c1cnc2[nH]ncc2c1` [Example I-105-b, 1-methyl-1-((2R,4R)-2-methyl-1-(1H-pyrazolo[3,4-b]pyridin-5-yl)piperidin-4-yl)-3-(1-methyl-2-oxo-5-(trifluoromethyl)-1,2-dihydropyridin-3-yl)urea]: above 8.00.
The figure for `CN(C(=O)Nc1cc(C(F)(F)F)cn(C)c1=O)[C@H]1CCN(c2cnc3cn[nH]c3c2)C[C@H]1F` [Example I-95-a, 1-((3R,4S)-3-fluoro-1-(1H-pyrazolo[4,3-b]pyridin-6-yl)piperidin-4-yl)-1-methyl-3-(1-methyl-2-oxo-5-(trifluoromethyl)-1,2-dihydropyridin-3-yl)urea] is above 8.00.
In turn, `COCc1cc2nc(N3CC[C@H](N(C)C(=O)Nc4cc(C(F)(F)F)cn(C)c4=O)C(F)(F)C3)cnc2[nH]1` [Example I-110-b, (S)-1-(3,3-difluoro-1-(6-(methoxymethyl)-5H-pyrrolo[2,3-b]pyrazin-2-yl)piperidin-4-yl)-1-methyl-3-(1-methyl-2-oxo-5-(trifluoromethyl)-1,2-dihydropyridin-3-yl)urea] showed a pKd above 8.00.
Next, `CN(C(=O)Nc1cc(C(F)(F)F)cn(C)c1=O)C1CC2(C1)CN(c1cnc3[nH]cc(C#N)c3n1)C2` [Example I-75, 1-(2-(7-cyano-5H-pyrrolo[2,3-b]pyrazin-2-yl)-2-azaspiro[3.3]heptan-6-yl)-1-methyl-3-(1-methyl-2-oxo-5-(trifluoromethyl)-1,2-dihydropyridin-3-yl)urea]: at most 5.30; `C[C@@H]1CN(c2cnc3[nH]ccc3n2)CC[C@@H]1N(C)C(=O)Nc1cc(C(F)(F)F)cn(C)c1=O` [Example I-58-a, 1-methyl-1-((3R,4S)-3-methyl-1-(5H-pyrrolo[2,3-b]pyrazin-2-yl)piperidin-4-yl)-3-(1-methyl-2-oxo-5-(trifluoromethyl)-1,2-dihydropyridin-3-yl)urea]: above 8.00; `CO[C@@H]1CN(c2cnc3[nH]c(C)cc3n2)CC[C@H]1N(C)C(=O)Nc1cc(C(F)(F)F)cn(C)c1=O` [Example I-117-a, 1-((3R,4R)-3-methoxy-1-(6-methyl-5H-pyrrolo[2,3-b]pyrazin-2-yl)piperidin-4-yl)-1-methyl-3-(1-methyl-2-oxo-5-(trifluoromethyl)-1,2-dihydropyridin-3-yl)urea]: 6.00 to 7.30.
As to `CN(C(=O)Nc1cc(C(F)(F)F)cn(C)c1=O)[C@@H]1C[C@@H]2C[C@H]1CN2c1cnc2[nH]ccc2n1` [Example I-43-a, 1-((1S,4S,5R)-2-(5H-pyrrolo[2,3-b]pyrazin-2-yl)-2-azabicyclo[2.2.1]heptan-5-yl)-1-methyl-3-(1-methyl-2-oxo-5-(trifluoromethyl)-1,2-dihydropyridin-3-yl)urea], the pKd was 7.30 to 8.00.
In the case of `Cn1cc(C(F)(F)F)cc(NC(=O)N2CCO[C@H]3CN(c4cnc(NC(=O)C5CC5)cn4)CC[C@@H]32)c1=O` [Example I-148-a, ((4aS,8aS)-6-(5-(cyclopropanecarboxamido)pyrazin-2-yl)-N-(1-methyl-2-oxo-5-(trifluoromethyl)-1,2-dihydropyridin-3-yl)octahydro-1H-pyrido[3,4-b][1,4]oxazine-1-carboxamide and (4aR,8aR)-6-(5-(cyclopropanecarboxamido)pyrazin-2-yl)-N-(1-methyl-2-oxo-5-(trifluoromethyl)-1,2-dihydropyridin-3-yl)octahydro-1H-pyrido[3,4-b][1,4]oxazine-1-carboxamide], the pKd is above 8.00.
`COc1c[nH]c2ncc(N3CC[C@@H](N(C)C(=O)Nc4cc(C(F)(F)F)cn(C)c4=O)C[C@H]3C)nc12` [Example I-161-b, 1-((2R,4R)-1-(7-methoxy-5H-pyrrolo[2,3-b]pyrazin-2-yl)-2-methylpiperidin-4-yl)-1-methyl-3-(1-methyl-2-oxo-5-(trifluoromethyl)-1,2-dihydropyridin-3-yl)urea] gave a pKd of 7.30 to 8.00.
As for `COc1c[nH]c2ncc(N3CC[C@H](N(C)C(=O)Nc4cc(C(F)(F)F)cn(C)c4=O)C[C@@H]3C)nc12` [Example I-161-a, 1-((2S,4S)-1-(7-methoxy-5H-pyrrolo[2,3-b]pyrazin-2-yl)-2-methylpiperidin-4-yl)-1-methyl-3-(1-methyl-2-oxo-5-(trifluoromethyl)-1,2-dihydropyridin-3-yl)urea], the pKd was 6.00 to 7.30.
Next, `Cc1cc2nc(N3CCC(N(C)C(=O)Nc4cc(C(F)(F)F)cn(C)c4=O)C(F)(F)C3)cnc2[nH]1` (single isomer, unassigned) [Example I-37-a, (R)- or (S)-1-(3,3-difluoro-1-(6-methyl-5H-pyrrolo[2,3-b]pyrazin-2-yl)piperidin-4-yl)-1-methyl-3-(1-methyl-2-oxo-5-(trifluoromethyl)-1,2-dihydropyridin-3-yl)urea]: above 8.00.
The molecule `CN(C(=O)Nc1cc(C(F)(F)F)cn(C)c1=O)[C@H]1CCN(c2cnc3[nH]ncc3c2)C[C@@H]1F` (stereo in doubt) [Example I-61-a, 1-((3S,4S)-3-fluoro-1-(1H-pyrazolo[3,4-b]pyridin-5-yl)piperidin-4-yl)-1-methyl-3-(1-methyl-2-oxo-5-(trifluoromethyl)-1,2-dihydropyridin-3-yl)urea] gave a pKd above 8.00.
The molecule `CO[C@H]1CN(c2cnc3[nH]ncc3c2)CC[C@@H]1N(C)C(=O)Nc1cc(C(F)(F)F)cn(C)c1=O` [Example I-109-b, 1-((3S,4S)-3-methoxy-1-(1H-pyrazolo[3,4-b]pyridin-5-yl)piperidin-4-yl)-1-methyl-3-(1-methyl-2-oxo-5-(trifluoromethyl)-1,2-dihydropyridin-3-yl)urea] gave a pKd of 7.30 to 8.00.
Molecule `CNc1c[nH]c2ncc([C@H]3CC[C@H](N(C)C(=O)Nc4cc(C(F)(F)F)cn(C)c4=O)CC3)nc12` [Example I-144, trans-1-methyl-3-(1-methyl-2-oxo-5-(trifluoromethyl)-1,2-dihydropyridin-3-yl)-1-(4-(7-(methylamino)-5H-pyrrolo[2,3-b]pyrazin-2-yl)cyclohexyl)urea] had a pKd above 8.00.
`CN(C)C(=O)Nc1cnc(N2CCC(N(C)C(=O)Nc3cc(C(F)(F)F)cn(C)c3=O)CC2)cn1` [Example I-48, 1,1-dimethyl-3-(5-(4-(1-methyl-3-(1-methyl-2-oxo-5-(trifluoromethyl)-1,2-dihydropyridin-3-yl)ureido)piperidin-1-yl)pyrazin-2-yl)urea]: the pKd is 7.30 to 8.00.
For the molecule `C[C@H]1CN(c2cnc3[nH]ncc3c2)CC[C@@H]1N(C)C(=O)Nc1cc(C(F)(F)F)cn(C)c1=O` [Example I-74-a, 1-methyl-1-((3S,4S)-3-methyl-1-(1H-pyrazolo[3,4-b]pyridin-5-yl)piperidin-4-yl)-3-(1-methyl-2-oxo-5-(trifluoromethyl)-1,2-dihydropyridin-3-yl)urea], the pKd was above 8.00.
For `COc1n[nH]c2ncc(N3CC[C@H]4[C@H](C3)OCCN4C(=O)Nc3cc(C(F)(F)F)cn(C)c3=O)cc12` (single isomer, unassigned) [Example I-169-b], the pKd was above 8.00.
Molecule `CO[C@@H]1CN(c2cnc3[nH]ncc3c2)CC[C@@H]1N(C)C(=O)Nc1cc(C(F)(F)F)cn(C)c1=O` [Example I-88-b, 1-((3R,4S)-3-methoxy-1-(1H-pyrazolo[3,4-b]pyridin-5-yl)piperidin-4-yl)-1-methyl-3-(1-methyl-2-oxo-5-(trifluoromethyl)-1,2-dihydropyridin-3-yl)urea] gave a pKd above 8.00.
On to `COc1n[nH]c2ncc(N3CCC(N(C)C(=O)Nc4cc(C5CC5)cn([C@H]5CCCOC5)c4=O)CC3)cc12` [Example I-136-a, (S)-3-(5-cyclopropyl-2-oxo-1-(tetrahydro-2H-pyran-3-yl)-1,2-dihydropyridin-3-yl)-1-(1-(3-methoxy-1H-pyrazolo[3,4-b]pyridin-5-yl)piperidin-4-yl)-1-methylurea], for which the pKd was above 8.00.
`CN(C(=O)Nc1cc(C(F)(F)F)cn(C)c1=O)[C@H]1CCN(c2cnc(NC(=O)C3CC3)cn2)CC1(F)F` (single isomer, unassigned) [Example I-34-b] gave a pKd above 8.00.
